Source: patent US5391540A, “Substituted pyridine compounds” (Rohm and Haas Company, priority 1993, dated 1995)

Assays:
Assay in all cases: Pre-emergent herbicidal activity (Table A)
Type in all cases: in vivo
Barnyardgrass = conditions: Echinochloa crus-galli, pre-emergence, Bygr, 11.2 kg/ha, 10-14 days, read-out: herbicidal rating (% inhibition)
Procedure: (§1) The herbicidal ratings used in Tables A and B were assigned according to a scale based on the percent inhibition of each plant species. The herbicide rating symbols in Tables A and B are defined as follows: […]
(§2) One set of pre-emergent tests was conducted as follows:
(§3) Topsoil was placed in a pan and compacted to a depth of 0.95 to 1.27 cm. from the top of the pan. A predetermined number of seeds of each of several monocotyledonous and dicotyledonous annual plant species and/or vegetative propagules of various perennial plant species were placed on top of the soil. The soil required to level fill a pan after seeding or adding vegetative propagules was weighed into another pan. A known amount of the test compound dissolved or suspended in an organic solvent or water and applied in acetone or water as a carrier was thoroughly mixed with this cover soil, and the herbicide/soil mixture was used as a cover layer for the previously prepared pan.
(§4) The plant species usually regarded as weeds which were utilized in one set of pre-emergent activity tests, the data for which are shown in Table A, are identified by letter headings printed diagonally above the columns according to the following legend: […]

Canada thistle = conditions: Cirsium arvense, pre-emergence, Cath, 11.2 kg/ha, 10-14 days, read-out: herbicidal rating (% inhibition)
Procedure: as §1, §2, §3, §4

Cocklebur = conditions: Xanthium strumarium, pre-emergence, Cobu, 11.2 kg/ha, 10-14 days, read-out: herbicidal rating (% inhibition)
Procedure: as §1, §2, §3, §4

Common Lambsquarters = conditions: Chenopodium album, pre-emergence, Colq, 11.2 kg/ha, 10-14 days, read-out: herbicidal rating (% inhibition)
Procedure: as §1, §2, §3, §4

Downy Brome = conditions: Bromus tectorum, pre-emergence, Dobr, 11.2 kg/ha, 10-14 days, read-out: herbicidal rating (% inhibition)
Procedure: as §1, §2, §3, §4

Morningglory = conditions: Ipomoea, pre-emergence, Mogl, 11.2 kg/ha, 10-14 days, read-out: herbicidal rating (% inhibition)
Procedure: as §1, §2, §3, §4

Pennsylvania Smartweed = conditions: pre-emergence, Pesw, 11.2 kg/ha, 10-14 days, read-out: herbicidal rating (% inhibition)
Procedure: as §1, §2, §3, §4

Quackgrass = conditions: pre-emergence, Rhqg, 11.2 kg/ha, 10-14 days, read-out: herbicidal rating (% inhibition)
Procedure: as §1, §2, §3, §4

Rhizome Johnsongrass = conditions: Sorghum halepense, pre-emergence, Rhjg, 11.2 kg/ha, 10-14 days, read-out: herbicidal rating (% inhibition)
Procedure: as §1, §2, §3, §4

Velvetleaf = conditions: Abutilon theophrasti, pre-emergence, Vele, 11.2 kg/ha, 10-14 days, read-out: herbicidal rating (% inhibition)
Procedure: as §1, §2, §3, §4

Yellow Nutsedge = conditions: Cyperus, pre-emergence, Yens, 11.2 kg/ha, 10-14 days, read-out: herbicidal rating (% inhibition)
Procedure: as §1, §2, §3, §4

SMILES	inhibition at 11200 g/ha (Barnyardgrass) [%]	inhibition at 11200 g/ha (Canada thistle) [%]	inhibition at 11200 g/ha (Cocklebur) [%]	inhibition at 11200 g/ha (Common Lambsquarters) [%]	inhibition at 11200 g/ha (Downy Brome) [%]	inhibition at 11200 g/ha (Morningglory) [%]	inhibition at 11200 g/ha (Pennsylvania Smartweed) [%]	inhibition at 11200 g/ha (Quackgrass) [%]	inhibition at 11200 g/ha (Rhizome Johnsongrass) [%]	inhibition at 11200 g/ha (Velvetleaf) [%]	inhibition at 11200 g/ha (Yellow Nutsedge) [%]
COC(=O)c1c(OC)nc(C(F)(F)F)c(C(=O)OC)c1C1CC1 [Compound 9, 3,5-pyridinedicarboxylic acid, 4-cyclopropy1-2-methoxy-6-(trifluoromethyl)-, dimethyl ester]	75 to 100	75 to 100	0 to 24	75 to 100	75 to 100	75 to 100	75 to 100	75 to 100	75 to 100	75 to 100	75 to 100
COC(=O)c1c(C(F)(F)F)nc(OC)c(C2=NCCO2)c1CC(C)C [Compound 27, 3-pyridinecarboxylic acid, 5-(4,5-dihydro-2-oxazolyl)-6-methoxy-4-(2-methylpropyl)-2-(trifluoromethyl)-, methyl ester]	75 to 100	75 to 100	25 to 49	75 to 100	75 to 100	75 to 100	75 to 100	75 to 100	0 to 24	75 to 100	50 to 74
COC(=O)c1c(OC)nc(C(F)(F)F)c(C(=O)n2ccc(C)n2)c1CC(C)C [Compound 51, 3-pyridinecarboxylic acid, 2-methoxy-4-(2-methylpropyl)-5-[(3-methy1-1H-pyrazo1-1-yl)carbonyl]-6-(trifluoromethyl)-, methyl ester]	75 to 100	75 to 100	25 to 49	75 to 100	75 to 100	75 to 100	75 to 100	75 to 100	75 to 100	75 to 100	25 to 49
COC(=O)c1c(OC)nc(C(F)(F)F)c(C(=O)OC)c1CSC [Compound 89, 3,5-pyridinedicarboxylic acid, 2-methoxy-4-[(methylthio)methyl]-6-(trifluoromethyl)-, dimethyl ester]	75 to 100	75 to 100	25 to 49	75 to 100	25 to 49	75 to 100	75 to 100	25 to 49	0 to 24	75 to 100	0 to 24
COC(=O)c1c(OC)nc(C(F)(F)F)c(C2=NC(C)(C)CS2)c1CC(C)C [Compound 75, 3-pyridinecarboxylic acid, 5-(4,5-dihydro-4,4-dimethy1-2-thiazolyl)-2-methoxy-4-(2-methylpropyl)-6-(trifluoromethyl)-, methyl ester]	75 to 100	75 to 100	50 to 74	75 to 100	75 to 100	75 to 100	75 to 100	75 to 100	25 to 49	75 to 100	75 to 100
COC=Nc1c(C(F)(F)F)nc(OC)c(C(=O)OC)c1CC(C)C [Compound 76, 3-pyridinecarboxylic acid, 2-methoxy-5-[(methoxymethylene)amino]-4-(2-methylpropyl)-6-(trifluoromethyl)-, methyl ester]	75 to 100	75 to 100	0 to 24	75 to 100	75 to 100	75 to 100	75 to 100	75 to 100	50 to 74	75 to 100	50 to 74
C#CCOc1nc(C(F)(F)F)c(C(=O)OC)c(CC(C)C)c1C(=O)OC [Compound 83, 3,5-pyridinedicarboxylic acid, 4-(2-methylpropyl)-2-(2-propynyloxy)-6-(trifluoromethyl)-, dimethyl ester]	75 to 100	25 to 49	0 to 24	75 to 100	75 to 100	75 to 100	75 to 100	75 to 100	25 to 49	75 to 100	0 to 24
